# From PubChem BioAssay AID328 (DTP/NCI, 2004)
# Where “and” joins values, the source holds several entries; their conditions need not be identical. Identical values can stand only once. Inconclusive results and toxic doses are left out.
# Tested on: BDF1 mice, P388 leukemia ip, median survival T/C
# Test: NCI In Vivo Anticancer Drug Screen. Data for tumor model P388 Leukemia (intraperitoneal) in B6D2F1 (BDF1) mice
# Conditions: endpoint: median survival time, higher = longer survival
# Method in brief: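 Vehicle-dosed animals serve as the reference; survival of compound-dosed, tumour-implanted mice is divided by it.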
# [1] = dose: 18.75 mg/kg/injection, schedule: Q01DX009 (ip), vehicle: saline
# [2] = dose: 75.0 mg/kg/injection, schedule: Q04DX003 (ip), vehicle: saline
# [3] = dose: 150.0 mg/kg/injection, schedule: Q04DX003 (ip), vehicle: saline
# [4] = dose: 100.0 mg/kg/injection, schedule: Q01DX009 (ip), vehicle: water
# [5] = dose: 50.0 mg/kg/injection, schedule: Q01DX009 (ip), vehicle: saline with Tween-80
# [6] = dose: 25.0 mg/kg/injection, schedule: Q01DX009 (ip), vehicle: saline
# [7] = dose: 50.0 mg/kg/injection, schedule: Q01DX009 (ip), vehicle: saline
# [8] = dose: 100.0 mg/kg/injection, schedule: Q01DX009 (ip), vehicle: saline
# [9] = dose: 100.0 mg/kg/injection, schedule: Q04DX003 (ip), vehicle: saline
# [10] = dose: 200.0 mg/kg/injection, schedule: Q04DX003 (ip), vehicle: saline
# [11] = dose: 400.0 mg/kg/injection, schedule: Q04DX003 (ip), vehicle: saline
# [12] = dose: 100.0 mg/kg/injection, schedule: Q01DX009 (ip), vehicle: saline with Tween-80
# [13] = dose: 200.0 mg/kg/injection, schedule: Q01DX009 (ip), vehicle: saline with Tween-80
# [14] = dose: 400.0 mg/kg/injection, schedule: Q01DX009 (ip), vehicle: saline with Tween-80
# [15] = dose: 50.0 mg/kg/injection, schedule: Q01DX009 (ip), vehicle: Klucel (hydroxypropylcellulose) (HPC)
smiles,measurement,setting,value
CC1CN1P(=O)(Oc1ccccc1)N1CC1C (configuration not stated),T/C,"dose: 65.0 mg/kg/injection, schedule: Q01DX009 (ip), vehicle: saline",104 % of control
CCN(CC)CCCC(C)Nc1c2ccc(Cl)cc2nc2ccc(OC)cc12 (configuration not stated),T/C,"dose: 9.37 mg/kg/injection, schedule: Q01DX009 (ip), vehicle: saline",86 % of control
same,T/C,[1],90 % of control
same,T/C,"dose: 37.5 mg/kg/injection, schedule: Q01DX009 (ip), vehicle: saline",100 % of control and 109 % of control
same,T/C,"dose: 75.0 mg/kg/injection, schedule: Q01DX009 (ip), vehicle: saline",118 % of control and 120 % of control
same,T/C,[2],104 % of control
same,T/C,"dose: 99.0 mg/kg/injection, schedule: Q04DX003 (ip), vehicle: saline",150 % of control
same,T/C,[3],172 % of control
Cn1cc(/C=C\C(=O)O)c2nccnc21,T/C,"dose: 6.25 mg/kg/injection, schedule: Q01DX009 (ip), vehicle: water",96 % of control
same,T/C,"dose: 12.5 mg/kg/injection, schedule: Q01DX009 (ip), vehicle: water",90 % of control
same,T/C,"dose: 25.0 mg/kg/injection, schedule: Q01DX009 (ip), vehicle: water",90 % of control
same,T/C,[4],102 % of control
O=[N+]([O-])c1ccc(NS(=O)(=O)c2cccs2)c([N+](=O)[O-])c1,T/C,[5],96 % of control
CCOC(=O)/C=C(\C)OCC,T/C,[6],104 % of control
same,T/C,"dose: 25.0 mg/kg/injection, schedule: Q04DX003 (ip), vehicle: saline",92 % of control and 111 % of control
same,T/C,[7],101 % of control
same,T/C,"dose: 50.0 mg/kg/injection, schedule: Q04DX003 (ip), vehicle: saline",94 % of control and 114 % of control
same,T/C,[8],90 % of control
same,T/C,[9],100 % of control
same,T/C,"dose: 200.0 mg/kg/injection, schedule: Q01DX009 (ip), vehicle: saline",109 % of control
same,T/C,[10],98 % of control and 106 % of control
same,T/C,"dose: 400.0 mg/kg/injection, schedule: Q01DX009 (ip), vehicle: saline",95 % of control
same,T/C,[11],97 % of control and 104 % of control
CC(CN1c2ccccc2Sc2ccccc21)N(C)C (configuration not stated),T/C,[1],100 % of control
same,T/C,"dose: 37.5 mg/kg/injection, schedule: Q04DX003 (ip), vehicle: saline",121 % of control
same,T/C,[2],117 % of control
same,T/C,[3],95 % of control
CC12CCC3c4ccc(OP(=O)(N5CC5)N5CC5)cc4CCC3C1CCC2O (configuration not stated),T/C,"dose: 12.5 mg/kg/injection, schedule: Q01DX009 (ip), vehicle: saline with Tween-80",102 % of control
same,T/C,"dose: 25.0 mg/kg/injection, schedule: Q01DX009 (ip), vehicle: saline with Tween-80",93 % of control
same,T/C,[5],121 % of control
same,T/C,[12],121 % of control
CCOC(=O)c1cc(N)c(C(=O)OCC)cc1N,T/C,[5],99 % of control and 114 % of control
same,T/C,[12],98 % of control and 108 % of control
same,T/C,[13],106 % of control
same,T/C,[14],99 % of control
c1ccc2cc3c(cc2c1)Nc1cc2ccccc2cc1N3,T/C,[12],96 % of control
same,T/C,"dose: 100.0 mg/kg/injection, schedule: Q04DX003 (ip), vehicle: saline with Tween-80",100 % of control
same,T/C,[13],103 % of control
same,T/C,"dose: 200.0 mg/kg/injection, schedule: Q04DX003 (ip), vehicle: saline with Tween-80",100 % of control
same,T/C,[14],100 % of control
same,T/C,"dose: 400.0 mg/kg/injection, schedule: Q04DX003 (ip), vehicle: saline with Tween-80",108 % of control
O=C(NNC(=O)c1ccc([N+](=O)[O-])cc1)c1ccccc1,T/C,"dose: 3.0 mg/kg/injection, schedule: Q01DX009 (ip), vehicle: Klucel (hydroxypropylcellulose) (HPC)",95 % of control
same,T/C,"dose: 6.0 mg/kg/injection, schedule: Q01DX009 (ip), vehicle: Klucel (hydroxypropylcellulose) (HPC)",104 % of control
same,T/C,"dose: 12.0 mg/kg/injection, schedule: Q01DX009 (ip), vehicle: Klucel (hydroxypropylcellulose) (HPC)",100 % of control
same,T/C,[15],92 % of control
same,T/C,"dose: 100.0 mg/kg/injection, schedule: Q04DX003 (ip), vehicle: Klucel (hydroxypropylcellulose) (HPC)",104 % of control
same,T/C,"dose: 200.0 mg/kg/injection, schedule: Q04DX003 (ip), vehicle: Klucel (hydroxypropylcellulose) (HPC)",87 % of control
same,T/C,"dose: 400.0 mg/kg/injection, schedule: Q04DX003 (ip), vehicle: Klucel (hydroxypropylcellulose) (HPC)",108 % of control
Cc1ccc2c(c1)SSc1ccc(C)cc1SS2,T/C,[5],103 % of control
same,T/C,[12],109 % of control
same,T/C,[13],114 % of control
CCSC(=O)N1c2ccc(OC)cc2C=CC1C#N (configuration not stated),T/C,[12],164 % of control
same,T/C,[13],180 % of control
same,T/C,[14],190 % of control
same,T/C,"dose: 600.0 mg/kg/injection, schedule: Q04DX003 (ip), vehicle: saline with Tween-80",150 % of control
COc1ccc(CN(CC(=O)O)S(C)(=O)=O)cc1,T/C,"dose: 100.0 mg/kg/injection, schedule: Q04DX003 (ip), vehicle: other",103 % of control
same,T/C,"dose: 200.0 mg/kg/injection, schedule: Q04DX003 (ip), vehicle: other",100 % of control
same,T/C,"dose: 400.0 mg/kg/injection, schedule: Q04DX003 (ip), vehicle: other",109 % of control
O=S(c1ccccc1)c1c(Cl)c(Cl)nc(Cl)c1Cl (configuration not stated),T/C,"dose: 2.75 mg/kg/injection, schedule: Q01DX009 (ip), vehicle: saline with Tween-80",109 % of control
same,T/C,"dose: 5.5 mg/kg/injection, schedule: Q01DX009 (ip), vehicle: saline with Tween-80",118 % of control
same,T/C,"dose: 11.0 mg/kg/injection, schedule: Q01DX009 (ip), vehicle: saline with Tween-80",113 % of control
same,T/C,"dose: 25.0 mg/kg/injection, schedule: Q04DX003 (ip), vehicle: saline with Tween-80",113 % of control
same,T/C,"dose: 50.0 mg/kg/injection, schedule: Q04DX003 (ip), vehicle: saline with Tween-80",121 % of control
CCN(CC)c1nc(N(C)C)nc(N(C)C)n1,T/C,[5],105 % of control
same,T/C,[12],99 % of control
same,T/C,[13],104 % of control
same,T/C,[14],117 % of control
CCOC(=O)N1C=Cn2c(cnc2C)C1O (configuration not stated),T/C,[7],105 % of control
same,T/C,"dose: 50.0 mg/kg/injection, schedule: Q01DX009 (ip), vehicle: water",110 % of control
same,T/C,[8],97 % of control
same,T/C,[4],103 % of control
same,T/C,[9],100 % of control
same,T/C,"dose: 100.0 mg/kg/injection, schedule: Q04DX003 (ip), vehicle: water",96 % of control
same,T/C,"dose: 200.0 mg/kg/injection, schedule: Q01DX009 (ip), vehicle: water",94 % of control
same,T/C,[10],102 % of control
same,T/C,"dose: 200.0 mg/kg/injection, schedule: Q04DX003 (ip), vehicle: water",96 % of control
same,T/C,"dose: 400.0 mg/kg/injection, schedule: Q01DX009 (ip), vehicle: water",94 % of control
same,T/C,[11],93 % of control
same,T/C,"dose: 400.0 mg/kg/injection, schedule: Q04DX003 (ip), vehicle: water",88 % of control
CN(C)CC1CCC/C(=C\C=C\c2ccccc2)C1=O (configuration not stated),T/C,"dose: 4.37 mg/kg/injection, schedule: Q01DX009 (ip), vehicle: Klucel (hydroxypropylcellulose) (HPC)",104 % of control and 113 % of control
same,T/C,"dose: 8.75 mg/kg/injection, schedule: Q01DX009 (ip), vehicle: Klucel (hydroxypropylcellulose) (HPC)",109 % of control
same,T/C,"dose: 17.5 mg/kg/injection, schedule: Q01DX009 (ip), vehicle: Klucel (hydroxypropylcellulose) (HPC)",109 % of control and 118 % of control
same,T/C,"dose: 35.0 mg/kg/injection, schedule: Q01DX009 (ip), vehicle: Klucel (hydroxypropylcellulose) (HPC)",120 % of control
same,T/C,[15],120 % of control
same,T/C,"dose: 75.0 mg/kg/injection, schedule: Q01DX009 (ip), vehicle: Klucel (hydroxypropylcellulose) (HPC)",120 % of control
COC(=O)C12CCc3cc(OC)ccc3C1=CC(=O)C2 (configuration not stated),T/C,"dose: 100.0 mg/kg/injection, schedule: Q04DX003 (ip), vehicle: saline sonified",100 % of control
same,T/C,"dose: 200.0 mg/kg/injection, schedule: Q04DX003 (ip), vehicle: saline sonified",95 % of control
CC1(C)N=C(N)N=C(N)N1c1ccc(OCC(=O)N2CCOCC2)cc1,T/C,[6],113 % of control
same,T/C,[7],113 % of control
C=C1C=C(C)CC(C)(C)C1 (tested in a mixture with another compound),T/C,"dose: 100.0 mg/kg/injection, schedule: Q01DX009 (ip), vehicle: saline sonified",100 % of control
same,T/C,"dose: 200.0 mg/kg/injection, schedule: Q01DX009 (ip), vehicle: saline sonified",100 % of control
same,T/C,"dose: 400.0 mg/kg/injection, schedule: Q01DX009 (ip), vehicle: saline sonified",100 % of control
